Results from US8445690B2, “Aminothiazolones as estrogen related receptor-alpha modulators” (Janssen Pharmaceutica NV, priority 2010, dated 2013).

Target: T1, ERR1 (also known as ERR-α or ERR-1) (Homo sapiens, UniProt P11474)
T1 sequence (P11474 193-421 limits assumed): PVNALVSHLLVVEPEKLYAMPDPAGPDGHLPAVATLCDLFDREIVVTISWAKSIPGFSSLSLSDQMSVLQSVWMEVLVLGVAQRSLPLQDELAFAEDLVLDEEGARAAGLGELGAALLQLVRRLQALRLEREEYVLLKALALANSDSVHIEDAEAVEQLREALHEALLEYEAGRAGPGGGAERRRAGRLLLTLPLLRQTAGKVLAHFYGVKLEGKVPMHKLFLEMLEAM
Assay: TR-FRET assay: disruption of co-activator peptide (GST-hSRC2) binding to 6His-tagged ERR1 LBD
Assay type: biochemical
Settings: 6 nM ERR1LBD, 6 nM GST-SRC-2 peptide, 25° C., 4-18 hours; average of 3 independent experiments
Description: Time-Resolved Fluorescence Resonance Energy Transfer (TR-FRET) experiments were performed to examine the functional response of ERR1 (also known as ERR-α or ERR-1) ligands. The TR-FRET assay described herein relied on the conformation of ERR1 for binding to a co-activator peptide: when a test compound binds to ERR1 and alters its conformation, it can disrupt the binding of the co-activator peptide. The components of this homogeneous secondary assay included: the ^6His-tagged-ERR1LBD, a GST-labeled-hSRC2 co-activator polypeptide and a fluorescent donor/acceptor pair from CIS bio international htrf/bioassays (Bedford, Mass.) using both an α-GST Europium Cryptate (Eu) label and an α^6His-XL665 (allophycocyanin) fluorophore.
For TR-FRET measurements, the reaction was buffered in 25 mM Tris pH 8, 2.5 mM Hepes, 20 mM KCl, 1 mM DTT, and 0.05 mg/mL BSA (-lipids). The final concentrations of reagents were 6 nM of ERR1LBD, 6 nM GST-SRC-2 peptide, 30 nM Eu cryptate, and 7.5 nM XL665. Reactions were allowed to reach equilibrium at 25° C. for 4-18 hours before collecting data on the Analyst from LJL Biosystems (Molecular Devices Sunnyvale, Calif.). As a time-resolved method, the samples were excited at […] and emission was collected for 1 ms at both 615 and 665 nm with delays of 400 and 75 μs, respectively. Dose response curves were fitted using a hyperbolic equation and the data reported is the average of 3 independent experiments.
Compounds listed in Tables II below were tested in the above assay, and they are all active modulators of ERR1.

Compound	EC50 [nM]
COc1ccc(Cn2ncc3cc(/C=C4\SC(NC5(C(=O)O)CC5)=NC4=O)ccc32)c(C(F)(F)F)c1 [Compound 13, 1-{5-[1-(4-Methoxy-2-trifluoromethyl-benzyl)-1H-indazol-5-ylmethylene]-4-oxo-4,5-dihydro-thiazol-2-ylamino}-cyclopropanecarboxylic acid]	5.3
O=C1N=C(NC2(C(=O)O)CC2)S/C1=C\c1ccc2c(cnn2Cc2ccc(Cl)cc2C(F)(F)F)c1 [Compound 45, 1-{5-[1-(4-Chloro-2-trifluoromethyl-benzyl)-1H-indazol-5-ylmethylene]-4-oxo-4,5-dihydro-thiazol-2-ylamino}-cyclopropanecarboxylic acid]	9.7
O=C1N=C(N[C@@H]2CN3CCC2CC3)S/C1=C\c1ccc2c(cnn2Cc2ccc(Cl)cc2C(F)(F)F)c1 [Compound 27, 2-(1-Aza-bicyclo[2.2.2]oct-3(S)-ylamino)-5-[1-(4-chloro-2-trifluoromethyl-benzyl)-1H-indazol-5-ylmethylene]-thiazol-4-one]	11
O=C1N=C(NCCn2cncn2)S/C1=C\c1ccc2c(cnn2Cc2ccc(C(F)(F)F)cc2C(F)(F)F)c1 [Compound 17, 5-[1-(2,4-Bis-trifluoromethyl-benzyl)-1H-indazol-5-ylmethylene]-2-(2-[1,2,4]triazol-1-yl-ethylamino)-thiazol-4-one]	7.6
COc1ccc(Cn2ncc3cc(/C=C4\SC(NC[C@H](O)CO)=NC4=O)ccc32)c(C(F)(F)F)c1 [Compound 9, 2-(2S,3-Dihydroxy-propylamino)-5-[1-(4-methoxy-2-trifluoromethyl-benzyl)-1H-indazol-5-ylmethylene]-thiazol-4-one]	8.9
COc1ccc(Cn2ncc3cc(/C=C4\SC(NCCN5CCCC5)=NC4=O)ccc32)c(C(F)(F)F)c1 [Compound 6, 5-[1-(4-Methoxy-2-trifluoromethyl-benzyl)-1H-indazol-5-ylmethylene]-2-(2-pyrrolidin-1-yl-ethylamino)-thiazol-4-one]	4.5
O=C1N=C(Nc2cccnc2)S/C1=C\c1ccc2c(cnn2Cc2ccc(Cl)cc2C(F)(F)F)c1 [Compound 20, 5-[1-(4-Chloro-2-trifluoromethyl-benzyl)-1H-indazol-5-ylmethylene]-2-(pyridin-3-ylamino)-thiazol-4-one]	19.4
O=C1N=C(NCc2c[nH]nn2)S/C1=C\c1ccc2c(cnn2Cc2ccc(Cl)cc2C(F)(F)F)c1 [Compound 42, 5-[1-(4-Chloro-2-trifluoromethyl-benzyl)-1H-indazol-5-ylmethylene]-2-[(1H-[1,2,3]triazol-4-ylmethyl)-amino]-thiazol-4-one]	10
CN(C)CCCNC1=NC(=O)/C(=C/c2ccc3c(cnn3Cc3ccc(F)cc3C(F)(F)F)c2)S1 [Compound 1, 2-(3-Dimethylamino-propylamino)-5-[1-(4-fluoro-2-trifluoromethyl-benzyl)-1H-indazol-5-ylmethylene]-thiazol-4-one]	77
O=C(O)CCCNC1=NC(=O)/C(=C/c2ccc3c(cnn3Cc3ccc(Cl)cc3C(F)(F)F)c2)S1 [Compound 37, 4-{5-[1-(4-Chloro-2-trifluoromethyl-benzyl)-1H-indazol-5-ylmethylene]-4-oxo-4,5-dihydro-thiazol-2-ylamino}-butyric acid]	18
NS(=O)(=O)CCNC1=NC(=O)/C(=C/c2ccc3c(cnn3Cc3ccc(C(F)(F)F)cc3C(F)(F)F)c2)S1 [Compound 31, 2-{5-[1-(2,4-Bis-trifluoromethyl-benzyl)-1H-indazol-5-ylmethylene]-4-oxo-4,5-dihydro-thiazol-2-ylamino}-ethanesulfonic acid amide]	37
CN1CCN(CCNC2=NC(=O)/C(=C/c3ccc4c(c3)c(I)nn4Cc3ccc(C(F)(F)F)cc3C(F)(F)F)S2)CC1 [Compound 48, 5-({1-[2,4-Bis(trifluoromethyl)benzyl]-3-iodo-1H-indazol-5-yl}methylidene)-2-{[2-(4-methylpiperazin-1-yl)ethyl]amino}-1,3-thiazol-4(5H)-one]	5
Cc1nnc(CNC2=NC(=O)/C(=C/c3ccc4c(cnn4Cc4ccc(Cl)cc4C(F)(F)F)c3)S2)[nH]1 [Compound 35, 5-[1-(4-Chloro-2-trifluoromethyl-benzyl)-1H-indazol-5-ylmethylene]-2-[(5-methyl-4H-[1,2,4]triazol-3-ylmethyl)-amino]-thiazol-4-one]	11.2
CN(C)CCCNC1=NC(=O)/C(=C/c2ccc3c(cnn3Cc3ccc(C(F)(F)F)cc3C(F)(F)F)c2)S1 [Compound 2, 5-[1-(2,4-Bis-trifluoromethyl-benzyl)-1H-indazol-5-ylmethylene]-2-(3-dimethylamino-propylamino)-thiazol-4-one]	12
O=C1N=C(NCc2c[nH]nn2)S/C1=C\c1ccc2c(cnn2Cc2ccc(C(F)(F)F)cc2C(F)(F)F)c1 [Compound 43, 5-[1-(2,4-Bis-trifluoromethyl-benzyl)-1H-indazol-5-ylmethylene]-2-[(1H-[1,2,3]triazol-4-ylmethyl)-amino]-thiazol-4-one]	19
O=C1N=C(N[C@H]2CCNC2)S/C1=C\c1ccc2c(cnn2Cc2ccc(Cl)cc2C(F)(F)F)c1 [Compound 21, 5-[1-(4-Chloro-2-trifluoromethyl-benzyl)-1H-indazol-5-ylmethylene]-2-(pyrrolidin-3S-ylamino)-thiazol-4-one]	4.6
COc1ccc(Cn2ncc3cc(/C=C4\SC(NCCn5cncn5)=NC4=O)ccc32)c(C(F)(F)F)c1 [Compound 18, 5-[1-(4-Methoxy-2-trifluoromethyl-benzyl)-1H-indazol-5-ylmethylene]-2-(2-[1,2,4]triazol-1-yl-ethylamino)-thiazol-4-one]	1.8
O=C1N=C(NCCC2CCOCC2)S/C1=C\c1ccc2c(cnn2Cc2ccc(C(F)(F)F)cc2C(F)(F)F)c1 [Compound 33, 5-[1-(2,4-Bis-trifluoromethyl-benzyl)-1H-indazol-5-ylmethylene]-2-[2-(tetrahydro-pyran-4-yl)-ethylamino]-thiazol-4-one]	260
CN1CCN(CCNC2=NC(=O)/C(=C/c3ccc4c(cnn4Cc4ccc(Cl)cc4C(F)(F)F)c3)S2)CC1 [Compound 39, 5-[1-(4-Chloro-2-trifluoromethyl-benzyl)-1H-indazol-5-ylmethylene]-2-[2-(4-methyl-piperazin-1-yl)-ethylamino]-thiazol-4-one]	6.6
CN1CCC(NC2=NC(=O)/C(=C/c3ccc4c(cnn4Cc4ccc(Cl)cc4C(F)(F)F)c3)S2)CC1 [Compound 25, 5-[1-(4-Chloro-2-trifluoromethyl-benzyl)-1H-indazol-5-ylmethylene]-2-(1-methyl-piperidin-4-ylamino)-thiazol-4-one]	42
O=C1N=C(NCCN2CCOCC2)S/C1=C\c1ccc2c(cnn2Cc2ccc(C(F)(F)F)cc2C(F)(F)F)c1 [Compound 12, 5-[1-(2,4-Bis-trifluoromethyl-benzyl)-1H-indazol-5-ylmethylene]-2-(2-morpholin-4-yl-ethylamino)-thiazol-4-one]	15
O=C1N=C(NCc2cncnc2)S/C1=C\c1ccc2c(cnn2Cc2ccc(Cl)cc2C(F)(F)F)c1 [Compound 32, 5-[1-(4-Chloro-2-trifluoromethyl-benzyl)-1H-indazol-5-ylmethylene]-2-[(pyrimidin-5-ylmethyl)-amino]-thiazol-4-one]	8.6
COc1ccc(Cn2ncc3cc(/C=C4\SC(NC[C@@H](O)CO)=NC4=O)ccc32)c(C(F)(F)F)c1 [Compound 10, 2-(2R,3-Dihydroxy-propylamino)-5-[1-(4-methoxy-2-trifluoromethyl-benzyl)-1H-indazol-5-ylmethylene]-thiazol-4-one]	4.9
COc1ccc(Cn2ncc3cc(/C=C4\SC(NCC(F)F)=NC4=O)ccc32)c(C(F)(F)F)c1 [Compound 11, 2-(2,2-Difluoro-ethylamino)-5-[1-(4-methoxy-2-trifluoromethyl-benzyl)-1H-indazol-5-ylmethylene]-thiazol-4-one]	3
O=C1N=C(NC(CO)CO)S/C1=C\c1ccc2c(cnn2Cc2ccc(Cl)cc2C(F)(F)F)c1 [Compound 38, 5-[1-(4-Chloro-2-trifluoromethyl-benzyl)-1H-indazol-5-ylmethylene]-2-(2-hydroxy-1-hydroxymethyl-ethylamino)-thiazol-4-one]	56.8
CNC(=O)CNC1=NC(=O)/C(=C/c2ccc3c(cnn3Cc3ccc(Cl)cc3C(F)(F)F)c2)S1 [Compound 41, 2-{5-[1-(4-Chloro-2-trifluoromethyl-benzyl)-1H-indazol-5-ylmethylene]-4-oxo-4,5-dihydro-thiazol-2-ylamino}-N-methyl-acetamide]	7.7
